Test results taken from ChEMBL document CHEMBL1128470, “Novel angiotensin II receptor antagonists. Design, synthesis, and in vitro evaluation of dibenzo[a,d]cycloheptene and dibenzo[b,f]oxepin derivatives. Searching for bioisosteres of biphenylyltetrazole using a three-dimensional search technique” (J Med Chem, 1995).

target: T1, Type-1 angiotensin II receptor (Homo sapiens, UniProt P30556); assay: Ability to displace [125I]AII binding to COS cells transfected with a cDNA encoding human Angiotensin II receptor, type 1; format: cell-based
T1 sequence (P30556 whole entry): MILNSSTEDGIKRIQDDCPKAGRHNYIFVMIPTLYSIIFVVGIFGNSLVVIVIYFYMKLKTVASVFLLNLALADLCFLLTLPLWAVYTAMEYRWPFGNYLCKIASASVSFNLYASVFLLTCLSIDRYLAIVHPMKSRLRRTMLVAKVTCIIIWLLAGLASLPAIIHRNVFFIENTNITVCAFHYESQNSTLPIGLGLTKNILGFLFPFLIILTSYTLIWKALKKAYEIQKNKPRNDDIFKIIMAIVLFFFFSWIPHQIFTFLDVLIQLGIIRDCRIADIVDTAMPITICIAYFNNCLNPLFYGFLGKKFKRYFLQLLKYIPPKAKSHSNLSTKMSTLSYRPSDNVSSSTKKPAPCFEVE

Row | Ki [nM] | Compound
1 | 9.6 | CCCCC(=O)N(Cc1ccc2c(c1)Oc1ccccc1C=C2c1nnn[nH]1)[C@H](C(=O)O)C(C)C
2 | 0.7 | CCCc1nc2c(C)cc(C)nc2n1Cc1ccc2c(c1)Oc1ccccc1C=C2c1nnn[nH]1
3 | 0.66 | CCc1nc2c(C)cc(C)nc2n1Cc1ccc2c(-c3nnn[nH]3)cc3ccccc3c(=O)c2c1
4 | 3.9 | CCOc1nc2cccc(C(=O)O)c2n1Cc1ccc2c(c1)Oc1ccccc1C=C2c1nnn[nH]1
5 | 0.29 | CCCc1nc2c(C)cc(C)nc2n1Cc1ccc2c(-c3nnn[nH]3)cc3ccccc3c(=O)c2c1
6 | 0.49 | CCCc1nc2c(C)cc(C)nc2n1Cc1ccc2c(c1)Cc1ccccc1C=C2c1nnn[nH]1
7 | 0.45 | Cc1cc(C)c2nc(C3CC3)n(Cc3ccc4c(-c5nnn[nH]5)cc5ccccc5c(=O)c4c3)c2n1

More lines, now with the values behind:

Row | Compound | Ki [nM]
8 | CCCCc1nc(Cl)c(C=O)n1Cc1ccc2c(-c3nnn[nH]3)cc3ccccc3c(=O)c2c1 | 12
9 | CCCCc1nc(Cl)c(C(=O)O)n1Cc1ccc2c(-c3nnn[nH]3)cc3ccccc3c(=O)c2c1 | 2.1
10 | Cc1cc(OCc2ccc3c(-c4nnn[nH]4)cc4ccccc4c(=O)c3c2)c2c(n1)CCCC2 | 4.3
11 | CCc1cc(OCc2ccc3c(-c4nnn[nH]4)cc4ccccc4c(=O)c3c2)c2c(n1)CCCC2 | 1.3
12 | CCOc1nc2cccc(C(=O)O)c2n1Cc1ccc2c(-c3nnn[nH]3)cc3ccccc3c(=O)c2c1 | 2.7
13 | CCOC(=O)c1c(OCc2ccc3c(-c4nnn[nH]4)cc4ccccc4c(=O)c3c2)cc(C)nc1C | 4.3
14 | CCc1cc(OCc2ccc3c(-c4nnn[nH]4)cc4ccccc4c(=O)c3c2)c2ccccc2n1 | 0.65
15 | CCc1cc(OCc2ccc3c(-c4nnn[nH]4)cc4ccccc4c(=O)c3c2)c2cc(C(=O)O)ccc2n1 | 2.7
16 | CCc1cc(NCc2ccc3c(-c4nnn[nH]4)cc4ccccc4c(=O)c3c2)n2nccc2n1 | 1.1
17 | CCCCC(=O)N(Cc1ccc2c(-c3nnn[nH]3)cc3ccccc3c(=O)c2c1)[C@H](C(=O)O)C(C)C | 8.7
18 | CCOC(=O)c1c(NCc2ccc3c(-c4nnn[nH]4)cc4ccccc4c(=O)c3c2)cc(C)nc1C | 2.9
19 | CCc1cc(OCc2ccc3c(-c4nnn[nH]4)cc4ccccc4c(=O)c3c2)c2nc(OC)ccc2n1 | 0.48
